Consider nine molecules from article PMC6331789, “Phytochemicals from Ruta graveolens Activate TAS2R Bitter Taste Receptors and TRP Channels Involved in Gustation and Nociception” (Molecules, 2015).

Read-outs that look alike come from different tables or passages of the source. Some results are limits rather than exact numbers.

Holding throughout (assay type): cell-based
One test addresses T1, TAS2R14 (Homo sapiens, UniProt Q9NYV8).
T1 construct: expressed in transfected cells; host or cells: HEK293T
T1 sequence (Q9NYV8 1-317): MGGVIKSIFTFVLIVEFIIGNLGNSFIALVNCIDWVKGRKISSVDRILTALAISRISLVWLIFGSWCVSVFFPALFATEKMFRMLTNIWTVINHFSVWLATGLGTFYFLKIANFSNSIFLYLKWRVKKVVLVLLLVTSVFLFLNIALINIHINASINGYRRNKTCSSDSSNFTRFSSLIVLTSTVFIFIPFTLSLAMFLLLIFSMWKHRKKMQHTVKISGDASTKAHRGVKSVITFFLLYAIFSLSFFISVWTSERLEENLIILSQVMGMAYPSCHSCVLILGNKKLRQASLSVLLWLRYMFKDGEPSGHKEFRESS
The test is described as follows: In vitro calcium imaging assay on cloned TAS2R14 in transfected HEK293T cells. To be noted: for TAS2R14 screening result: single dose, qualitative. The text has this: (§1) Pure phytochemicals were submitted to in vitro assays with a platform of twenty cloned receptors of the bitter taste TAS2R family and four receptors of the TRP family related to the perception of taste and somatosensory sensations. All experiments have been repeated three times, each time with four replicates. […] For simplicity, only those bitter taste receptors having reproducible positive assay, namely TASR10, 14 and 49, are reported (Table 1).
(§2) For those compounds showing activity on one or more receptor(s), the concentration/response curves were plotted and the EC50 calculated.
(§3) For the biological tests, several compounds were purchased as references from different suppliers (Sigma Aldrich, ChromaDex, Irvine, CA, USA, and Tocris Bioscience, Bristol, UK) and dissolved in assay buffer (130 mM NaCl, 5 mM KCl, 1 mM MgCl2, 2 mM CaCl2, 5 mM NaHCO3 and 20 mM HEPES, pH 7.4) or in a mixture of assay buffer and DMSO, never exceeding a final DMSO concentration of 0.5% (v/v) to avoid toxic effects and possible artefacts on transfected cells.
(§4) All human TAS2R and G15Gi1 cDNAs were produced as reported in Bassoli et al. cDNAs for human TRPA1-M5-M8-V1-V4 were cloned into a pcDNA6 expression vector (Invitrogen-Thermo Fisher, Waltham, MA, USA).
(§5) All experiments were performed using HEK293T cells (ATCC).
(§6) For the bitter platform experiments, cells were cultured, transfected and analyzed as previously described.
(§7) For the bitter platform experiments, data analyses were performed as previously described.
(§8) For the calculation of concentration-response curves, responses were calculated as the difference between maximal and minimal relative fluorescence unit (RFU) values in a selected time window (11–60 s) and were normalized to the basal well fluorescence (Time Point 1, before compound injection) in order to compensate for differences in cell density (∆F/F0). All of the experiments have been repeated three times, each time with four replicates. All of the results are averages of at least four replicates. Raw data are available in Supplementary Material, Figures S3–S6.

For the next test, the target named is T2, TRPV1 (Homo sapiens, UniProt Q8NER1).
T2 construct: expressed in transfected cells
T2 sequence (Q8NER1 whole entry): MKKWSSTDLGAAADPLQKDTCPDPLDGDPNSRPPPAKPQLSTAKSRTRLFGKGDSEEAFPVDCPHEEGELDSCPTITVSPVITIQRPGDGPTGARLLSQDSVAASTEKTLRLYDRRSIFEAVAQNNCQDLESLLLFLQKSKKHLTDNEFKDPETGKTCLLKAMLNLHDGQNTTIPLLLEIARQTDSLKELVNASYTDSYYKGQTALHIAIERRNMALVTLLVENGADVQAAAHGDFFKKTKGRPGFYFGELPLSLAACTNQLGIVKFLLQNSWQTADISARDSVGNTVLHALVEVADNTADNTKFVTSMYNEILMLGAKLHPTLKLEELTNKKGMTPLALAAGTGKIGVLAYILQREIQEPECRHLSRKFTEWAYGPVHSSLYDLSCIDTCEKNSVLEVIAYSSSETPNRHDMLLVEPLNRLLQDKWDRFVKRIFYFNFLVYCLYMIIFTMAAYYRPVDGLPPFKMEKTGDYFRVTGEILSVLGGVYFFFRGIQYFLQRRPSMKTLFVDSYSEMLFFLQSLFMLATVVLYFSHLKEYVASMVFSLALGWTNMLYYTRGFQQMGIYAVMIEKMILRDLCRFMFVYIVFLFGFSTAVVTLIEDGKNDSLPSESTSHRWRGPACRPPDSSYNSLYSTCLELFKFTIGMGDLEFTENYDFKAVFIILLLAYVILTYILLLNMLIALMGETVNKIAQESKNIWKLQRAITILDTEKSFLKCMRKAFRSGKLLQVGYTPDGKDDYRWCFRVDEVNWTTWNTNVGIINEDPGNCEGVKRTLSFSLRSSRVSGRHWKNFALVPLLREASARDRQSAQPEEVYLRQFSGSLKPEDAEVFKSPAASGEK
Put plainly: In vitro Fluo8-NW calcium assay (FLIPR) on HEK293T cells stably overexpressing TRPV1. To be noted: for TRPV1 screening result: single dose, qualitative.
Excerpt: as §1, §3, §4, §5
(§9) For TRP platform experiments, cells were cultured in MEM/EBSS medium (ECB2071L EuroClone, Milan, Italy) plus 10% (v/v) fetal bovine serum (FBS) (26400-044 Gibco, Karlsruhe, Germany) and 1% (v/v) Pen/Strep 10K/10K stock (17-602E Lonza, Basel, Switzerland). Stable cell lines were generated overexpressing each TRP channel, and clones were selected with 500 µg/mL of G418 (ant-gn-5 Invivogen, Karlsruhe, Germany). To analyze TRP receptor responses, cells were plated at a concentration of 20,000 cells/well in 384-well plates (GR-4330 Twin Helix srl, Milan, Italy). Cellular responses were measured 24 h after seeding.
(§10) For TRPA1-M8-V1-V4 experiments, a solution of Fluo8-NW calcium-sensitive dye (36316 AAT BioQuest, Sunnyvale, CA, USA) was prepared using the assaybuffer and diluting the kit components 1:2 according to the manufacturer’s instructions. Twenty-four hours after seeding, cells were incubated one hour at RT, loaded with 40 µL of Fluo8-NW solution for each well and incubated again for one hour at RT before data acquisition.
(§11) For TRPM5 experiments, cells were loaded 24 h after seeding with a Membrane Potential Dye (R8034 MDC) solution in assay buffer according to the manufacturer’s instructions and incubated at 37 °C for 1 h before acquisition. All experiments were performed using a fluorometric imaging plate reader (FLIPR^TETRA, Molecular Devices equipped with ICCD Camera from Stanford Photonics, INC, (Palo Alto, CA, USA) and kinetics were visualized with Molecular Devices’ Screenworks 3.0 (Sunnyvale, CA, USA).
as §8

Another test addresses T3, TAS2R10 (Homo sapiens, UniProt Q9NYW0).
T3 construct: expressed in transfected cells; host or cells: HEK293T
T3 sequence (Q9NYW0 1-307): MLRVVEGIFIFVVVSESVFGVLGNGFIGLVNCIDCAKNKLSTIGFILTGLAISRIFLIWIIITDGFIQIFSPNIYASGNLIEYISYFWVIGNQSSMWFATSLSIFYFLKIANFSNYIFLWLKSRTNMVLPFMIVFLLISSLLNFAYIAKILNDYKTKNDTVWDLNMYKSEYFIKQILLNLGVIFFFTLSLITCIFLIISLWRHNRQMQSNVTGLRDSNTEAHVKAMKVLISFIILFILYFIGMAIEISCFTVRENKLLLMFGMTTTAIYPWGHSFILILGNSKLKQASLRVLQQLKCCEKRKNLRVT
The test is described as follows: In vitro calcium imaging assay on cloned TAS2R10 in transfected HEK293T cells. To be noted: for TAS2R10 screening result: single dose, qualitative.
Excerpt: as §1, §2, §3, §4, §5, §6, §7, §8

Another test has as its target T4, TRPA1 (Homo sapiens, UniProt O75762).
T4 construct: expressed in transfected cells
Put plainly: In vitro Fluo8-NW calcium assay (FLIPR) on HEK293T cells stably overexpressing TRPA1. To be noted: for TRPA1 screening result: single dose, qualitative.
Excerpt: Pure phytochemicals were submitted to in vitro assays with a platform of twenty cloned receptors of the bitter taste TAS2R family and four receptors of the TRP family related to the perception of taste and somatosensory sensations. All experiments have been repeated three times, each time with four replicates.
as §2, §3, §4, §5, §9, §10, §11, §8

The next test addresses T5, TRPM8 (Homo sapiens, UniProt Q7Z2W7).
T5 construct: expressed in transfected cells
Put plainly: In vitro Fluo8-NW calcium assay (FLIPR) on HEK293T cells stably overexpressing TRPM8. To be noted: for TRPM8 screening result: single dose, qualitative.
Excerpt: as §1, §2, §3, §4, §5, §9, §10, §11, §8

The mark [1] stands for this setting: concentration/response curve, values with ≥ estimated, curve did not saturate, read-out: EC50 TAS2R10.
Setting [2] is: concentration/response curve, values with ≥ estimated, curve did not saturate, read-out: EC50 TAS2R14.

T5 sequence (Q7Z2W7 whole entry): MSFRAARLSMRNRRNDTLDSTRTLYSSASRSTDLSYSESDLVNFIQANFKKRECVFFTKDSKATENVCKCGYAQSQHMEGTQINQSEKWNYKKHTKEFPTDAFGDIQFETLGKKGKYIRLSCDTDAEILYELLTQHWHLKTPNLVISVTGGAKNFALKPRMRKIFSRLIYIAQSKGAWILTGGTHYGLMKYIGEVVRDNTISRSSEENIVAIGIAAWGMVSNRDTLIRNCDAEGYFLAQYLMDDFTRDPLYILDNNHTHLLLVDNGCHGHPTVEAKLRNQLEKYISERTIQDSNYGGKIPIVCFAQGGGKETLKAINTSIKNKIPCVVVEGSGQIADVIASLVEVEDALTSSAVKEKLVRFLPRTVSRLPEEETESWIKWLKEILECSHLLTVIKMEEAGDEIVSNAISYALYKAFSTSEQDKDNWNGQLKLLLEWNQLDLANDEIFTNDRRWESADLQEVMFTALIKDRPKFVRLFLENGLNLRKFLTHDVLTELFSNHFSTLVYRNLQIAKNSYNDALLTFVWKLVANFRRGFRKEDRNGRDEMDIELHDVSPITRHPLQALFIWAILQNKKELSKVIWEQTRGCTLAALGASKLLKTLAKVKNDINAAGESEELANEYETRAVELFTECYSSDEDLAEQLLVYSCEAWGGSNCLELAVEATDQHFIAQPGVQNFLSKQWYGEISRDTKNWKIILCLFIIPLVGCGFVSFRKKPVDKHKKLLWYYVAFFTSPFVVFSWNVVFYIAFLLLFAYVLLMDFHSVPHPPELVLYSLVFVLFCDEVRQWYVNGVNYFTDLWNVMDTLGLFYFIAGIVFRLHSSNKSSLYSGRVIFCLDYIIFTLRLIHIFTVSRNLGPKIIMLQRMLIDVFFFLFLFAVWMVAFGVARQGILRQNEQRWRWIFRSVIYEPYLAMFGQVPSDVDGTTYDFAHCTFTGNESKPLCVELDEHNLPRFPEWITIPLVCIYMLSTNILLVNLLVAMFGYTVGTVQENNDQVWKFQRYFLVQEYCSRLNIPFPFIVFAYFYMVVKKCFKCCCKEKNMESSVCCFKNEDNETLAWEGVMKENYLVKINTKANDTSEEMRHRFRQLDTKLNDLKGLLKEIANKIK
T4 sequence (O75762 whole entry): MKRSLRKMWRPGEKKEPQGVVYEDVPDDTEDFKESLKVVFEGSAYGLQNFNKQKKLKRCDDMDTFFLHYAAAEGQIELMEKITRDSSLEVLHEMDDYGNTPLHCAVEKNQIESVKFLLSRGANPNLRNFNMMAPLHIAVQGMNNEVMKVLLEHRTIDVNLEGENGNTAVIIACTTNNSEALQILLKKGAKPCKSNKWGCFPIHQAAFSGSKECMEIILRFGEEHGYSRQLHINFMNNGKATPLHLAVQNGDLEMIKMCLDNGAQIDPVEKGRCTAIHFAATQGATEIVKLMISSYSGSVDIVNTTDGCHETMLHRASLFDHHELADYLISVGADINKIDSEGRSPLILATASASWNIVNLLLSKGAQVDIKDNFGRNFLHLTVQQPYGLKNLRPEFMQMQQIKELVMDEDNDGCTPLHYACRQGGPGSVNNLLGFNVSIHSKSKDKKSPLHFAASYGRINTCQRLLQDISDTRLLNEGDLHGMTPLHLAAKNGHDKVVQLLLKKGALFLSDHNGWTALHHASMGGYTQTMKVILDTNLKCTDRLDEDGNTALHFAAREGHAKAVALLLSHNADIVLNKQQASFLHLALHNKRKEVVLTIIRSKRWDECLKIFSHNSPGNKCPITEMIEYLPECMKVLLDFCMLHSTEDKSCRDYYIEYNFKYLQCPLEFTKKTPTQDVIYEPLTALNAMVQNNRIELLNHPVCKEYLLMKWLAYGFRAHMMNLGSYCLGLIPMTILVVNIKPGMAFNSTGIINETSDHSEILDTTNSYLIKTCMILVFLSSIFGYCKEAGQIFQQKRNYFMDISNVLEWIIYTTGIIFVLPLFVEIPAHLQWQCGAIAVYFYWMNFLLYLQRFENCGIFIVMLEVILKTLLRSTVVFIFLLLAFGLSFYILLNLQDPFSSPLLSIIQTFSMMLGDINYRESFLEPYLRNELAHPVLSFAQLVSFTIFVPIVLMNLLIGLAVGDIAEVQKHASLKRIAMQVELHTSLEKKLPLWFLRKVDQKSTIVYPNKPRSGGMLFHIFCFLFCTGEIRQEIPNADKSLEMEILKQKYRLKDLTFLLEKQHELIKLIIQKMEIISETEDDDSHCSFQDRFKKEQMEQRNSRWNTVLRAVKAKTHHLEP

`C[C@@H]1O[C@@H](OC[C@H]2O[C@@H](Oc3c(-c4ccc(O)c(O)c4)oc4cc(O)cc(O)c4c3=O)[C@H](O)[C@@H](O)[C@@H]2O)[C@H](O)[C@H](O)[C@H]1O` [Compound 1, rutin]: the TAS2R14 screening result at TAS2R14 is recorded as “−”. Moreover, the TRPV1 screening result at TRPV1 is “−”. For the same molecule, at TAS2R10, the TAS2R10 screening result is given as “−”. Also, the TRPA1 screening result at TRPA1 is recorded as “−”. For the same molecule, the TRPM8 screening result at TRPM8 is on record as “−”.
With `C=CC(C)(C)c1cc2cc3c(cc2oc1=O)OC(C(C)(C)OC(C)=O)C3` (centres unmarked) [Compound 2, rutamarin], the TAS2R14 screening result on TAS2R14 was “−”. Moreover, on TRPV1, the “Activity on TRPV1 (in words)” value was “agonist” and the TRPV1 screening result was “+”. Further, on TAS2R10, the TAS2R10 screening result is “−”. In addition, on TRPA1, the “Activity on TRPA1 (in words)” value is reported as “did not activate” and the TRPA1 screening result is given as “−”. For the same molecule, on TRPM8, the “Activity on TRPM8 (in words)” value is reported as “strong antagonist”.
With `COc1c2ccoc2cc2oc(=O)ccc12` [Compound 3, bergapten], at TAS2R14, the “Activity on TAS2R14 (in words)” value was “inactive” and the TAS2R14 screening result was “−”. In addition, the TRPV1 screening result at TRPV1 is reported as “−”. Further, on TAS2R10, the “Activity on TAS2R10 (in words)” value is “selective and strong agonist”; the TAS2R10 screening result is “+++”. The EC50 (commonly the concentration at which the effect is half-maximal) at TAS2R10 (setting [1]) was 2.8 µM. Also, at TRPA1, the TRPA1 screening result is on record as “−”. The TRPM8 screening result at TRPM8 is listed as “−”.
As for `COc1c2occc2cc2ccc(=O)oc12` [Compound 4, xanthotoxin], on TAS2R14, the concentration giving a half-maximal response (EC50) was ≥ 10.8 µM and the TAS2R14 screening result is “+”. The TRPV1 screening result at TRPV1 was “−”. Besides, on TAS2R10, the “Activity on TAS2R10 (in words)” value is given as “responded”, the EC50 is ≥ 20.6 µM and the TAS2R10 screening result is “+”. On TRPA1, the “Activity on TRPA1 (in words)” value is “agonists” and the TRPA1 screening result is given as “+”. Also, the EC50 at TRPA1 (concentration/response curve, values with ≥ estimated, n.d. = non detectable, read-out: EC50 TRPA1) was ≥ 19.7 µM. The TRPM8 screening result on TRPM8 was “−”.
Take `COc1c2ccoc2c(OC)c2oc(=O)ccc12` [Compound 5, isopimpinellin]: at TAS2R14, the “Activity on TAS2R14 (in words)” value is “responded” and the TAS2R14 screening result is recorded as “+”. For the same molecule, the EC50 at TAS2R14 (setting [2]) is 11.1 µM. The TRPV1 screening result at TRPV1 is “−”. In addition, the EC50 on TAS2R10 (setting [1]) was 12 µM. In addition, the TAS2R10 screening result on TAS2R10 is recorded as “++”. Further, on TRPA1, the “Activity on TRPA1 (in words)” value was “agonists”, the EC50 was ≥ 22.8 µM and the TRPA1 screening result was “+”. Moreover, at TRPM8, the TRPM8 screening result is recorded as “−”.
As for `COc1cc2nc3occc3c(OC)c2cc1OC` [Compound 7, kokusaginin], the TAS2R14 screening result at TAS2R14 is “−”. Moreover, at TRPV1, the TRPV1 screening result was “−”. Besides, the TAS2R10 screening result on TAS2R10 is “−”. For the same molecule, the TRPA1 screening result on TRPA1 is listed as “−”. The TRPM8 screening result at TRPM8 is on record as “−”.
`COc1ccc2c(OC)c3ccoc3nc2c1OC` [Compound 8, skimmianine]: on TAS2R14, the “Activity on TAS2R14 (in words)” value is reported as “selectively activate” and the TAS2R14 screening result is “+”. Further, the EC50 on TAS2R14 (setting [2]) was ≥ 15.8 µM. Further, the TRPV1 screening result on TRPV1 is “−”. The TAS2R10 screening result at TAS2R10 is on record as “−”. Also, at TRPA1, the TRPA1 screening result was “−”. Also, the TRPM8 screening result at TRPM8 is “−”.
For the molecule `CCCCCCCCCC(C)=O` [Compound 9, 2-undecanone], at TAS2R14, the TAS2R14 screening result is listed as “−”. Moreover, at TRPV1, the TRPV1 screening result is “−”. For the same molecule, the TAS2R10 screening result at TAS2R10 is “−”. For the same molecule, at TRPA1, the TRPA1 screening result is “−”. Further, the TRPM8 screening result at TRPM8 is “−”.
With `CCCCCCCC(C)=O` [Compound 10, 2-nonanone], on TAS2R14, the TAS2R14 screening result is “−”. Also, on TRPV1, the TRPV1 screening result is given as “−”. The TAS2R10 screening result on TAS2R10 was “−”. Further, the TRPA1 screening result at TRPA1 is given as “−”. Besides, at TRPM8, the TRPM8 screening result is reported as “−”.
